{"source": "patent US20220280653A1", "about": "“INTERCELLULAR ADHESION MOLECULE 1 (ICAM1) ANTIBODY DRUG CONJUGATE AND USES THEREOF” (Children's Medical Center Corporation, priority 2019, published 2022)", "key": {"PANC-1 cells": {"tested_on": "PANC-1 cells", "assay": "Cytotoxicity assay (CCK-8)", "format": "cell-based", "settings": "Homo sapiens; PANC-1, 72 hours"}, "[1]": {"settings": "in vivo; cited from earlier work"}}, "note": "pIC50: −log10 of the molar value. Counter-ions that a name gives are not always drawn.", "data": [{"smiles": "Nc1ccn([C@@H]2O[C@H](CO)[C@@H](O)C2(F)F)c(=O)n1", "note": "[GEM, Gemcitabine hydrochloride]", "values": [{"measurement": "pIC50", "setting": "PANC-1 cells", "value": 4.05}, {"measurement": "circulation half-life", "setting": "[1]", "value": 16.8, "unit": "min"}]}]}
